The experiment concerns BDF1 mice, P388 leukemia ip, median survival T/C. As to the kind of experiment: NCI In Vivo Anticancer Drug Screen. Data for tumor model P388 Leukemia (intraperitoneal) in B6D2F1 (BDF1) mice. The conditions noted are these: endpoint: median survival time, higher = longer survival. The method in brief: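 Steps: implant the tumour, treat one group with compound and another with vehicle, record survival, then divide treated by control.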

Values joined by “and” are separate entries in the source; they are usually repeats but may differ in a detail not shown here. Identical values can stand only once. Toxic doses and inconclusive results are not listed.

As to `CC(=O)NNC(=O)c1ccccn1`, the T/C (dose: 4.0 mg/kg/injection, schedule: Q03HX024 (ip), vehicle: saline) is 100 % of control; the T/C (dose: 8.0 mg/kg/injection, schedule: Q03HX008 (ip), vehicle: saline) was 100 % of control; the T/C (dose: 8.0 mg/kg/injection, schedule: Q03HX016 (ip), vehicle: saline) is 95 % of control; the T/C (dose: 8.0 mg/kg/injection, schedule: Q03HX024 (ip), vehicle: saline) was 90 % of control; the T/C (dose: 16.0 mg/kg/injection, schedule: Q03HX008 (ip), vehicle: saline) was 90 % of control; the T/C (dose: 16.0 mg/kg/injection, schedule: Q03HX016 (ip), vehicle: saline) was 90 % of control. For the same compound, the T/C reads like this: (dose: 16.0 mg/kg/injection, schedule: Q03HX024 (ip), vehicle: saline) 100 % of control; (dose: 19.0 mg/kg/injection, schedule: Q01DX010 (ip), vehicle: water) 95 % of control; (dose: 32.0 mg/kg/injection, schedule: Q01DX009 (ip), vehicle: saline) 90 % of control; (dose: 32.0 mg/kg/injection, schedule: Q01DX009 (oral), vehicle: saline) 90 % of control; (dose: 32.0 mg/kg/injection, schedule: Q03HX008 (ip), vehicle: saline) 95 % of control; (dose: 32.0 mg/kg/injection, schedule: Q03HX016 (ip), vehicle: saline) 90 % of control. The T/C is 90 % of control (dose: 32.0 mg/kg/injection, schedule: Q03HX024 (ip), vehicle: saline); 90 % of control (dose: 32.0 mg/kg/injection, schedule: Q04DX003 (ip), vehicle: saline); 100 % of control (dose: 38.0 mg/kg/injection, schedule: Q01DX010 (ip), vehicle: water); 113 % of control (dose: 50.0 mg/kg/injection, schedule: Q01DX009 (ip), vehicle: water); 109 % of control (dose: 50.0 mg/kg/injection, schedule: Q01DX009 (oral), vehicle: water); 90 % of control (dose: 64.0 mg/kg/injection, schedule: Q01DX001 (ip), vehicle: saline). Moreover, the T/C is 90 % of control (dose: 64.0 mg/kg/injection, schedule: Q01DX001 (oral), vehicle: saline); 90 % of control (dose: 64.0 mg/kg/injection, schedule: Q01DX009 (ip), vehicle: saline); 90 % of control (dose: 64.0 mg/kg/injection, schedule: Q01DX009 (oral), vehicle: saline); 95 % of control (dose: 64.0 mg/kg/injection, schedule: Q03HX008 (ip), vehicle: saline); 90 % of control (dose: 64.0 mg/kg/injection, schedule: Q03HX016 (ip), vehicle: saline); 90 % of control (dose: 64.0 mg/kg/injection, schedule: Q03HX024 (ip), vehicle: saline). Besides, the T/C is 100 % of control (dose: 64.0 mg/kg/injection, schedule: Q04DX003 (ip), vehicle: saline); 90 % of control (dose: 64.0 mg/kg/injection, schedule: Q08DX002 (ip), vehicle: saline); 100 % of control (dose: 75.0 mg/kg/injection, schedule: Q01DX010 (ip), vehicle: water); 109 % of control (dose: 100.0 mg/kg/injection, schedule: Q01DX009 (oral), vehicle: water); 100 % of control (dose: 128.0 mg/kg/injection, schedule: Q01DX001 (ip), vehicle: saline); 95 % of control (dose: 128.0 mg/kg/injection, schedule: Q01DX001 (oral), vehicle: saline). Also, the T/C runs as follows: (dose: 128.0 mg/kg/injection, schedule: Q01DX009 (ip), vehicle: saline) 95 % of control; (dose: 128.0 mg/kg/injection, schedule: Q01DX009 (oral), vehicle: saline) 90 % of control; (dose: 128.0 mg/kg/injection, schedule: Q04DX003 (ip), vehicle: saline) 90 % of control; (dose: 128.0 mg/kg/injection, schedule: Q08DX002 (ip), vehicle: saline) 90 % of control; (dose: 256.0 mg/kg/injection, schedule: Q01DX001 (ip), vehicle: saline) 90 % of control; (dose: 256.0 mg/kg/injection, schedule: Q01DX001 (oral), vehicle: saline) 90 % of control. The T/C (dose: 256.0 mg/kg/injection, schedule: Q04DX003 (ip), vehicle: saline) is 95 % of control.
`Cc1cnc2ncn(Cc3c[nH]c(=O)[nH]c3=O)c(=O)c2c1`: the T/C reads like this: (dose: 12.5 mg/kg/injection, schedule: Q01DX001 (ip), vehicle: saline with Tween-80) 105 % of control and 112 % of control; (dose: 25.0 mg/kg/injection, schedule: Q01DX001 (ip), vehicle: saline with Tween-80) 104 % of control and 109 % of control; (dose: 50.0 mg/kg/injection, schedule: Q01DX001 (ip), vehicle: saline with Tween-80) 102 % of control.
For `CC(=O)NC1=C(N2CC2)C(=O)C(NC(C)=O)=C(N2CC2)C1=O`, the T/C (dose: 0.12 mg/kg/injection, schedule: Q01DX009 (ip), vehicle: saline) is 155 % of control; the T/C (dose: 0.25 mg/kg/injection, schedule: Q01DX009 (ip), vehicle: saline) is 166 % of control and 195 % of control; the T/C (dose: 0.5 mg/kg/injection, schedule: Q01DX009 (ip), vehicle: saline) is 270 % of control and 214 % of control; the T/C (dose: 1.0 mg/kg/injection, schedule: Q01DX009 (ip), vehicle: saline) is 285 % of control and 190 % of control; the T/C (dose: 2.0 mg/kg/injection, schedule: Q01DX009 (ip), vehicle: saline) was 109 % of control.
For the compound `CC(=O)n1nc2c(c1CC(C)C)C(=O)C(Nc1ccccc1)=CC2=O`, the T/C (dose: 100.0 mg/kg/injection, schedule: Q04DX002 (ip), vehicle: saline with Tween-80) was 102 % of control; the T/C (dose: 200.0 mg/kg/injection, schedule: Q04DX002 (ip), vehicle: saline with Tween-80) is 108 % of control; the T/C (dose: 400.0 mg/kg/injection, schedule: Q04DX002 (ip), vehicle: saline with Tween-80) was 106 % of control.
Take `CC(C)CN1CCOCC1`: the T/C is 95 % of control (dose: 25.0 mg/kg/injection, schedule: Q04DX003 (ip), vehicle: saline); 108 % of control (dose: 50.0 mg/kg/injection, schedule: Q04DX003 (ip), vehicle: saline); 95 % of control (dose: 100.0 mg/kg/injection, schedule: Q04DX003 (ip), vehicle: saline).
`CC[CH2][Sn]([Cl])([Cl])[CH2]CC`: the T/C runs as follows: (dose: 0.1 mg/kg/injection, schedule: Q01DX009 (ip), vehicle: Klucel (hydroxypropylcellulose) (HPC)) 100 % of control; (dose: 0.2 mg/kg/injection, schedule: Q01DX009 (ip), vehicle: Klucel (hydroxypropylcellulose) (HPC)) 113 % of control; (dose: 0.25 mg/kg/injection, schedule: Q01DX009 (ip), vehicle: Klucel (hydroxypropylcellulose) (HPC)) 90 % of control; (dose: 0.4 mg/kg/injection, schedule: Q01DX009 (ip), vehicle: Klucel (hydroxypropylcellulose) (HPC)) 113 % of control; (dose: 0.5 mg/kg/injection, schedule: Q01DX009 (ip), vehicle: Klucel (hydroxypropylcellulose) (HPC)) 100 % of control; (dose: 1.0 mg/kg/injection, schedule: Q01DX009 (ip), vehicle: Klucel (hydroxypropylcellulose) (HPC)) 113 % of control. For the same compound, where the note is “dose: 2.0 mg/kg/injection, schedule: Q01DX009 (ip), vehicle: Klucel (hydroxypropylcellulose) (HPC)”, the T/C was 122 % of control.
As for `C=Cc1ccc(Oc2ccccc2)cc1`, the T/C runs as follows: (dose: 25.0 mg/kg/injection, schedule: Q01DX009 (ip), vehicle: saline) 104 % of control; (dose: 50.0 mg/kg/injection, schedule: Q01DX009 (ip), vehicle: saline) 104 % of control; (dose: 100.0 mg/kg/injection, schedule: Q01DX009 (ip), vehicle: saline) 109 % of control.
Consider `CC[CH2][Sn]([CH2]CC)([CH2]CC)[O][Sn]([CH2]CC)([CH2]CC)[CH2]CC`, for which the T/C is, setting by setting: (dose: 0.25 mg/kg/injection, schedule: Q01DX009 (ip), vehicle: saline with Tween-80) 90 % of control; (dose: 0.25 mg/kg/injection, schedule: Q04DX003 (ip), vehicle: saline with Tween-80) 100 % of control; (dose: 0.5 mg/kg/injection, schedule: Q01DX009 (ip), vehicle: saline with Tween-80) 95 % of control; (dose: 0.5 mg/kg/injection, schedule: Q04DX003 (ip), vehicle: saline with Tween-80) 104 % of control; (dose: 1.0 mg/kg/injection, schedule: Q01DX009 (ip), vehicle: saline with Tween-80) 100 % of control; (dose: 1.0 mg/kg/injection, schedule: Q04DX003 (ip), vehicle: saline with Tween-80) 100 % of control.
Turning to `Nc1nc(CNc2ccc(Cl)cc2)nc(Nc2cccc(Cl)c2)n1`, the T/C is, setting by setting: (dose: 100.0 mg/kg/injection, schedule: Q01DX001 (ip), vehicle: saline sonified) 100 % of control; (dose: 200.0 mg/kg/injection, schedule: Q01DX001 (ip), vehicle: saline sonified) 105 % of control; (dose: 400.0 mg/kg/injection, schedule: Q01DX001 (ip), vehicle: saline sonified) 100 % of control.

Source of the values: PubChem BioAssay AID328 (DTP/NCI, 2004).
